# Measured values from patent EP2201946A1, “PAI-1 PRODUCTION INHIBITOR” (Institute of Medicinal Molecular Design, Inc., priority 2007, dated 2009).
# pIC50: −log10 of the molar value.
# What was measured:
# [1] = test system: Chronic Obstructive Pulmonary Disease (COPD) model; test: Collagen accumulation in alveoli of guinea pigs exposed to cigarette smoke (Masson-trichrome, image analysis); assay type: in vivo; conditions: smoke of 40 cigarettes a day for 25 days, oral once a day for 25 days, compound (1) 30 or 100 mg/kg/day, prednisolone 10 mg/kg/day (Fig. 2)
# Procedure: Using the smoking exposure system (INH06-CIG01A, MIPS Inc.), 6-week old guinea pigs (Std: male Hartley, Japan SLC, Inc.) were exposed to smoke of 40 cigarettes (Peace (Registered Trademark), Japan Tobacco, Inc.) a day (20 cigarettes twice) for 25 continuous days (Chronic Obstructive Pulmonary Disease (COPD) model group: Control group: n=10). To theseguinea pigs, from the day of exposure to the smoke of tobacco, the compound (1) (30 mg/kg/day or 100 mg/kg/day) or prednisolone (10 mg/kg/day) was continuously administered orally once a day for 25 days (Compound (1) 30 mg administered group: n=5, Compound (1) 100 mg administered group: n=5, Prednisolone administered group: n=5). Furthermore, as a normal group, guinea pigs (n=5) exposed to air without the administration of the compound (1) and prednisolone were prepared. On the following day of the last exposure, after preparing paraffin sections in the lungs of each guinea pig, collagen was stained by the Masson-trichrome method, and the accumulations of collagen in the alveoli were measured by the area rate with the image analysis. […] Next, the above paraffin section was stained by the immunostaining method using an anti PAI-1 antibody (PAI-1 H-135; Santa Cruz; 250-fold dilution), and the ratio of PAI-1 expression cells to the total cell numbers infiltrated in the lung was measured. […]
# [2] = test system: TGF-β induced PAI-1 production; test: TGF-β induced PAI-1 production in HT1080 cells (Western blotting); assay type: cell-based; conditions: TGF-β1 10 ng/mL, 6-hours incubation
# Procedure: After incubating HT1080 cells for 48 hours in the MEM medium containing 10%FBS (Fetal Bovine Serum), the medium was changed to a MEM medium containing 1% FBS, and TGF-β1 (final concentration: 10 ng/mL) only, or TGF-β1 (final concentration: 10 ng/mL) and the test substances were added and incubated. As a control, a culture solution without neither TGF-β1 nor the test substances was prepared. After 6-hours incubation, the culture fluids were collected, and the PAI-1 amounts in the culture fluids were measured by the Western blotting. The PAI-1 amount when TGF-β1 only was added being "100%," and the PAI-1 amount in the control being "0%," PAI-1 I amounts at each concentration of the test substances (PAI-1 inhibition ratios) were calculated, and the concentrations of the compounds, which inhibited PAI-1 production to 50% (IC50) in amount, were obtained.
# [3] = test system: TGF-β induced PAI-1 production; test: TGF-β induced PAI-1 production in HepG2 cells (Human Serpin E1/PAI-1 DuoSet); assay type: cell-based; conditions: Compound Concentration : 1μM, TGF-β1 1ng/mL, 24 hours
# Procedure: HepG2 cells were seeded on a 96-well culture plate by 2x10^4 cells/well, and were incubated for 24 hours in the MEM medium containing 1% NEAA (Non-Essential Amino Acids), 1mM pyruvate, and 10% FBS. Then, the medium was changed to a MEM medium containing 1% NEAA, 1mM pyruvate and 1% FBS, and the cells were further incubated for 24 hours. Subsequently, after the medium was changed to a MEM medium containing 1% NEAA, 1mM pyruvate and 1% FBS, and then the cells were treated with the test substances (final concentration: 1 µM or 0.1 µM) for one hour, TGF-β1 (final concentration.1ng/mL) was added and the cells were further incubated for 24 hours. As controls, a culture solution added TGF-β1 only and a culture solution cultured without neither the test substances nor TGF-β1 were prepared. After the incubation, the PAI-1 amount was measured using Human Serpin E1/PAI-1 DuoSet (R&D Systems). The PAI-1 amount when treated with TGF-β1 only being "100%", and the PAI-1 amount when treated without neither the test substances nor TGF-β1 being "0%", the PAI-1 inhibition ratios of each test substance were calculated. IC50 of the compound (2) was about 50 nM.
pIC50 [2],SMILES,accumulation of collagen in the alveoli (area rate) [1],Inhibition Ratio (%) [3] [%]
–,C[C@]12C=CC(=O)C=C1CC[C@@H]1[C@@H]2[C@@H](O)C[C@@]2(C)[C@H]1CC[C@]2(O)C(=O)CO [prednisolone],not able to inhibit the accumulation of collagen,–
7.08,O=C(Nc1cc(C(F)(F)F)ccc1C(F)(F)F)c1cc(Br)ccc1O [(3)],–,>90
